Key:
Kv1.5 potassium channel = target: T1, Kv1.5 potassium channel (Homo sapiens, UniProt P22460); assay: Patch clamp, CHO cells stably expressing the Kv1.5 potassium channel; type: cell-based; conditions: Kv1.5 mediated current
T1 construct: expressed in transfected cells
Description: The cDNA coding for Kv1.5 (GenBank Acc. No. M55513) was cloned into the pcDNA6-vector (Invitrogen, Leek, Netherlands). A C-terminal epitope-tag was introduced via PCR. The plasmid was sequenced and subsequently introduced into cells. Clonal cell lines stably expressing the Kv1.5 channel were established. Expression of protein was analyzed by means of immunofluorescence using antibodies directed against the epitope-tag. The functional expression of the ion channels was validated electrophysiologically.
The experiments were performed using CHO cells stably expressing the Kv1.5 potassium channel.
From a HP of −60 mV cells were hyperpolarised for 100 ms to […], followed by a 500 ms depolarisation to +50 mV. The current amplitude at the end of the test pulse to +50 mV was used for the analysis. Pulse cycling rate was 10 s (0.1 Hz).
The application protocol of test compounds is depicted in FIG. 7. The first 14 stimuli were required to achieve steady state of the current amplitude. Unspecific current reduction was calculated and served for correcting procedures during data analysis. After the 14th stimulus the test compound application was started (indicated by an arrow) via teflon and silicone tubings and was assumed to reach the cell after 6 additional stimuli. The perfusion is adjusted by using a defined drop rate of 10 drops per 10-12 s. Up to three concentrations were applied successively to one cell followed by a wash period of 5 minutes. Total number of stimuli was 140. Effect of the test compound was analysed between stimulus nos. 21 and 50 (5 min., long dashed line) for the first concentration, between stimulus nos. 51 and 80 (5 min., short dashed line) for an additional 5 minutes. If the cell was still stable, a wash was added afterwards. Start of test compound application at the given concentration is indicated by arrows. Number of stimuli of each single episode are shown in the protocol of FIG. 7.
The effects of the compounds were investigated at one concentration (2 μM or 1 μM) on the Kv1.5-mediated potassium channel. For comparison, the vehicle control experiments on the Kv1.5 mediated potassium channel. Results are presented in 9Table 9

human Kv4.3 = target: T2, human Kv4.3 (Homo sapiens, UniProt Q9UK17); assay: C. elegans based high-throughput screen for Kv4.3 modulators (pharynx pumping, Calcein AM uptake), transgenic strain UG1755; type: in vivo; conditions: for Ratio N2/Kv4.3: EC50 on N2 divided by EC50 on the Kv4.3 expressing strain, cut-off 1.8; for EC50: transgenic strain UG1755 expressing human Kv4.3, read-out: EC50 (μM) Kv4.3 worm
T2 construct: expressed in transfected cells; host or cells: transgenic C. elegans strain UG1755 (N2 injected with plasmid pGV8, integrated array)
T2 sequence (Q9UK17 1-655): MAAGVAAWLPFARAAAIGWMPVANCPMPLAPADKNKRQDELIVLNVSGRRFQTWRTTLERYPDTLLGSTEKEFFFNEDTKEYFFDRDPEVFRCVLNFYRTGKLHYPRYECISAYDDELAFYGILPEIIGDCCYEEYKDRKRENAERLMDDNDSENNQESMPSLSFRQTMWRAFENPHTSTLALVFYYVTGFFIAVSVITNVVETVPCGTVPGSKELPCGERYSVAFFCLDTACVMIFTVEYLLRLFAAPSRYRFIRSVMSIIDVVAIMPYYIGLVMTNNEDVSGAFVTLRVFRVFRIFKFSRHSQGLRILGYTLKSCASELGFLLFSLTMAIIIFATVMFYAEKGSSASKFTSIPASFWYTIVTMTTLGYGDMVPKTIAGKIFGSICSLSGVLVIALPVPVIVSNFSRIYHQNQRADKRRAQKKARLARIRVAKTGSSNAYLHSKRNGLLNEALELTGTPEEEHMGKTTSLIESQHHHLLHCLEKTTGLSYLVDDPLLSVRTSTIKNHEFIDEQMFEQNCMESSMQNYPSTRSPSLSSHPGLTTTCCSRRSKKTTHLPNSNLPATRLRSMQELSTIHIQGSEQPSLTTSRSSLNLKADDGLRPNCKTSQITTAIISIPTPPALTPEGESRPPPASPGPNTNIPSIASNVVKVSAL
Excerpt: A C. elegans based high-throughput screen for Kv4.3 modulators has been used to establish an in vivo SAR (structure-activity relationships: the effect of chemical structure on biological activity) on Kv4.3 for the compounds according to the present invention.
This assay has employed a stable transgenic C. elegans strain that functionally expressed human Kv4.3 in the pharynx and a visible selection GFP maker in body-wall muscle.
The pharynx is the feeding organ of C. elegans and contracts rhythmically 3-4 times per second. The pharynx contraction is controlled by the nervous system via action potentials similar to the human myocyte and can thus be used to study human ion channel physiology in vivo in C. elegans.
Introducing the human Kv4.3 channel into the C. elegans pharynx influences the C. elegans action potential in a characteristic fashion. The additional number of potassium channels increases potassium ion efflux, enhances re-polarization and thereby shortens the action potential duration. […] The shortened action potentials of the C. elegans pharynx resulting from expression of human Kv4.3, changes the pharynx contraction-relaxation cycle and consequently reduces the pumping/feeding in these transgenic animals. This change of pumping is an end-point amenable to high-throughput screening technology. The pumping end-point can be technically translated into a high-throughput read-out by the use of a pro-fluorescent dye. The pro-fluorescent dye is taken up by C. elegans depending on its pumping activity and converted into a fluorescent dye by enzymes located in its intestines. After a defined incubation period, the change of fluorescence intensity in the intestine can be measured with a plate reader.
The screening of the compounds according to the present invention has been performed in the C. elegans based high-throughput screen for Kv4.3 modulators described above. The method for testing the activity on human Kv4.3 of the compounds according to the invention with C. elegans strains expressing human Kv4.3 for their activity is the same as the method described in WO 03/097682. The method for testing the compounds on wild-type C. elegans strains not expressing human Kv4.3 is the same as the method described in WO 00/63427. Briefly, UG1755 animals have been grown in large numbers and staged young adults (no or only few eggs inside the uterus) have been harvested on the day of screening. Approximately 125 animals in 80 μl buffer have been dispensed per well of a “U shaped 96-well compound plate The compound plate contained already compound material at a final concentration of 30 μM in 0.3% DMSO. After one hour incubation 10 μl of the fluorescent label Calcein AM (CAM) have been added to achieve a final concentration of 5 μM CAM and 0.8% DMSO. After another four hours of incubation at 20° C., the drinking of C. elegans animals (or the “reaction 8 measured by the uptake of CAM) has been stopped by adding 10 μl of a 60 μM ivermectin solution. The fluorescence intensity (counts per second) has been measured 40 minutes after adding ivermectin with the Wallac plate reader at a wavelength of 535 nm (after excitation at 485 nm).
The active compounds have been identified and confirmed by dose-response analysis. An EC50 has been calculated and the results are listed under Table 3. Dose-response curves have been obtained at concentrations of 30 μM. EC50 has been calculated using XLfit 2.09 software package.

[1] = 2 μM, fraction, cell also prints %

T1 sequence (P22460 whole entry): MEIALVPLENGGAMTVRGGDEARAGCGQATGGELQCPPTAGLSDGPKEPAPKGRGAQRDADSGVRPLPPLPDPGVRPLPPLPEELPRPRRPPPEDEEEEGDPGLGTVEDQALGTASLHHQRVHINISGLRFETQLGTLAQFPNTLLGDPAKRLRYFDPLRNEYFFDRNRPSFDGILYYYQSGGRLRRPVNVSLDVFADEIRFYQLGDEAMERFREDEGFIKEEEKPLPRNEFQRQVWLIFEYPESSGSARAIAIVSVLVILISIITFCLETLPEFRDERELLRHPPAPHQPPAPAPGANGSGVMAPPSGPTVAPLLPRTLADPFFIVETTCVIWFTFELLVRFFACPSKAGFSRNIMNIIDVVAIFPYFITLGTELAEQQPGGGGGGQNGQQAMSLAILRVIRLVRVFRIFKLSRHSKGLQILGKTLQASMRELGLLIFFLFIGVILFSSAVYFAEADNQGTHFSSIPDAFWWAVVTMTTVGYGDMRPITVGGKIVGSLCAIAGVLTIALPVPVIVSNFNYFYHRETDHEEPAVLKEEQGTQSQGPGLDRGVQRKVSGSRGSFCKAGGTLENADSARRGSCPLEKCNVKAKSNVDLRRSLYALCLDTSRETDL

Row | Structure (SMILES) | Relative remaining current (mean after 8-10 min) (Kv1.5 potassium channel; 1 μM) | Ratio N2/Kv4.3 (human Kv4.3) | EC50 (human Kv4.3) | further results
1 | COc1ccccc1Nc1ccc(C(=O)N[C@H]2CCC[C@@H]2OCc2ccccc2)s1 [Compound 75, 2-(2-methoxy-phenylamino)-thiophene-5-carboxylic acid ((1S,2S)-2-benzyloxycyclopent-1-yl) amide] | 77% |  |  | 
2 | Cc1nc(Nc2cccc3cccnc23)sc1C(=O)N[C@H]1CCC[C@@H]1OCc1ccccc1 [Compound 94, 4-methyl-2-(quinolin-8-ylamino)-thiazole-5-carboxylic acid ((1S,2S)-2-benzyloxycyclopent-1-yl) amide] | 79% |  |  | 
3 | COc1ccccc1Nc1nc(C)c(C(=O)N[C@H]2CCC[C@@H]2OCc2ccccc2)s1 [Compound 68, 2-(2-methoxy-phenylamino)-4-methyl-thiazole-5-carboxylic acid (1S,2S)-2-(benzyloxycyclopent-1-yl) amide] |  |  |  | Relative remaining current (mean after 8-10 min) (Kv1.5 potassium channel; [1]): 0.51 (51%); Relative remaining current (mean after 5 min) (Kv1.5 potassium channel; [1]): 0.66 (66%)
4 | Cc1nc(Nc2ccc(F)cc2)sc1C(=O)N[C@H](C)c1ccc2ccccc2c1 [Compound 16, 2-(4-fluoro-phenylamino)-4-methyl-thiazole-5-carboxylic acid (R)-1-(naphthalen-2-yl)ethyl amide] |  | >1.8 | 32.1 µM | 
5 | Cc1nc(Nc2ccc(Br)cc2)sc1C(=O)N[C@@H](C)c1ccc2ccccc2c1 [Compound 18, 2-(4-bromo-phenylamino)-4-methyl-thiazole-5-carboxylic acid (S)-1-(naphthalen-2-yl)ethyl amide] |  | 2.4 | 13.5 µM | 
6 | Cc1nc(Sc2ccccc2)sc1C(=O)N[C@H]1CCC[C@@H]1OCc1ccccc1 [Compound 81, 4-methyl-2-phenylsulfanyl-thiazole-5-carboxylic acid ((1S,2S)-2-benzyloxycyclopent-1-yl) amide] | 44% |  |  | 
7 | Cc1nc(Nc2ccc(Cl)cc2)sc1C(=O)N[C@@H]1CCC[C@H]1OCc1ccccc1 [Compound 30, 2-(4-chloro-phenylamino)-4-methyl-thiazole-5-carboxylic acid (1R,2R)-2-(benzyloxycyclopent-1-yl) amide] |  | >6.4 | 9 µM | 
8 | Cc1nc(Nc2ccc3occc3c2)sc1C(=O)N[C@H]1CCC[C@@H]1OCc1ccccc1 [Compound 126, 2-(benzofuran-5-ylamino)-4-methyl-thiazole-5-carboxylic acid ((1S,2S)-2-benzyloxycyclopent-1-yl) amide] | 86% |  |  | 
9 | Cc1nc(Nc2ccc(Br)cc2)sc1C(=O)N[C@H](C)c1ccc2ccccc2c1 [Compound 19, 2-(4-bromo-phenylamino)-4-methyl-thiazole-5-carboxylic acid (R)-1-(naphthalen-2-yl)ethyl amide] |  | 4.7 | 7 µM | 

Source: patent US20080125432A1 (Devgen NV, priority 2004, published 2008)
